These results are taken from ChEMBL document CHEMBL1201862, “PubChem BioAssay data set” (2004).

Test systems include U-251; BT-549; HOP-62; MDA-N; HCT-15; A498; SNB-75; EKVX; HT-29; LOX IMVI; NCI-H522; ACHN; DU-145; SN12C; UO-31; IGROV-1; SW-620; OVCAR-8; HOP-92; SR.
What all share (test): DTP human tumour cell line panel, 48 h

Where a name gives a salt, the structure may show the parent alone.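 Briefly, cells in 96-well plates were exposed to five compound concentrations for 48 h, and endpoints were estimated by linear interpolation. GI50: concentration for 50% inhibition of growth.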 Active and inactive are the calls of the source. Rule as the data show it: active = GI50 up to about 1.1 µM and inactive = higher.

As to `COCO[C@@H]1C[C@H]2C(=O)Nc3ccccc3C(=O)N2C1`, the GI50 is 45.7 µM (inactive) with U-251; 35.3 µM (inactive) with BT-549; 39.8 µM (inactive) in the experiment with HOP-62; 39.2 µM (inactive) with MDA-N; more than 100 µM in the experiment with HCT-15; 38.5 µM (inactive) in the experiment on A498. Besides, the GI50 was 45.3 µM (inactive) with SNB-75; > 100 µM (inactive) in the experiment on EKVX; 85.3 µM (inactive) with HT-29; 29.2 µM (inactive) with LOX IMVI; 16.2 µM (inactive) in the experiment on NCI-H522; 50.6 µM (inactive) with ACHN. The GI50 in the experiment with DU-145 was 48.8 µM (inactive); in the experiment with SN12C it was 88.1 µM (inactive); in the experiment with UO-31 it was 27 µM (inactive); in the experiment on IGROV-1, 33 µM (inactive); in the experiment on SW-620, 50.7 µM (inactive); in the experiment on OVCAR-8 it was > 100 µM (inactive).
Regarding `CN(C)S(=O)(=O)/N=C/c1cccc(/C=N/S(=O)(=O)N(C)C)c1`, the GI50 in the experiment on HOP-92 was 32.1 µM (inactive); in the experiment with U-251, > 100 µM (inactive); in the experiment with BT-549, 38.1 µM (inactive); in the experiment with HOP-62 it was > 100 µM (inactive); with MDA-N, 31 µM (inactive); with HCT-15, more than 100 µM. For the same compound, the GI50 in the experiment with A498 is > 100 µM (inactive); with SNB-75, 22.9 µM (inactive); with EKVX it was 64.9 µM (inactive); in the experiment on LOX IMVI, > 100 µM (inactive); in the experiment with ACHN it was > 100 µM (inactive); in the experiment on DU-145, > 100 µM (inactive). Besides, the GI50 in the experiment with SN12C is > 100 µM (inactive); in the experiment on UO-31, > 100 µM (inactive); with SW-620, 64 µM (inactive); in the experiment with OVCAR-8 it was 51.3 µM (inactive).
For `Clc1cc(OCc2nn3c(Cc4ccccc4)nnc3s2)ccc1OCc1nn2c(Cc3ccccc3)nnc2s1`, the GI50 was 17.3 µM (inactive) in the experiment on HOP-92; 21.6 µM (inactive) in the experiment with U-251; 25.8 µM (inactive) with BT-549; 31.8 µM (inactive) in the experiment on HOP-62; 47.8 µM with HCT-15; 29.1 µM (inactive) in the experiment with A498. In addition, the GI50 with SNB-75 was 15.6 µM (inactive); in the experiment on EKVX it was 17.1 µM (inactive); with HT-29, 79.1 µM (inactive); with LOX IMVI, 93.8 µM (inactive); in the experiment on SR, 35 µM (inactive); in the experiment on NCI-H522, 50.1 µM (inactive). The GI50 with ACHN was 24.2 µM (inactive); with DU-145, 29.6 µM (inactive); in the experiment on SN12C it was 45.3 µM (inactive); in the experiment with UO-31 it was 39.4 µM (inactive); in the experiment on IGROV-1 it was 30.6 µM (inactive); in the experiment with SW-620 it was 79.8 µM (inactive). Moreover, the GI50 in the experiment on OVCAR-8 is 20.7 µM (inactive).
Consider `Cc1ccc(S(=O)(=O)N2CCCSCCSCCCN(S(=O)(=O)c3ccc(C)cc3)CC2)cc1`, for which the GI50 in the experiment on U-251 is > 100 µM (inactive); in the experiment with BT-549, > 100 µM (inactive); in the experiment with HOP-62, > 100 µM (inactive); in the experiment on MDA-N, > 100 µM (inactive); with HCT-15, more than 100 µM; in the experiment with A498, > 100 µM (inactive). For the same compound, the GI50 in the experiment on SNB-75, in the experiment with EKVX, in the experiment with HT-29, in the experiment on ACHN, in the experiment with DU-145 and in the experiment on SN12C was > 100 µM (inactive) each time. Further, the GI50 in the experiment on UO-31, in the experiment with IGROV-1, in the experiment on SW-620 and with OVCAR-8 was > 100 µM (inactive) throughout.
`CCCCCCCCCCCCCCCCOP(=O)([O-])OCC[N+](C)(C)C1CC(C)(C)N(O)C(C)(C)C1`: the GI50 with HOP-92 is > 100 µM (inactive); in the experiment with U-251 it was > 100 µM (inactive); in the experiment on BT-549, > 100 µM (inactive); in the experiment with HOP-62, > 100 µM (inactive); in the experiment with HCT-15, more than 100 µM; in the experiment with A498, > 100 µM (inactive). For the same compound, the GI50 in the experiment with SNB-75, with EKVX, with HT-29, in the experiment with SR, with NCI-H522 and with ACHN was > 100 µM (inactive) throughout. Besides, the GI50 in the experiment with DU-145, with UO-31, in the experiment on SW-620 and in the experiment on OVCAR-8 was > 100 µM (inactive) in each case.
Turning to `CN(C)CCC=C1c2ccccc2C=Cc2ccccc21` [CYCLOBENZAPRINE HYDROCHLORIDE], the GI50 in the experiment on HOP-92 is 15.6 µM (inactive); in the experiment with U-251, 16.3 µM (inactive); with BT-549, 17.4 µM (inactive); with HOP-62, 16.5 µM (inactive); in the experiment on HCT-15, 17.7 µM; in the experiment with A498 it was 15.8 µM (inactive). For the same compound, the GI50 was 14.7 µM (inactive) with SNB-75; 10.9 µM (inactive) with EKVX; 5.25 µM (inactive) with HT-29; 16.7 µM (inactive) in the experiment on LOX IMVI; 17.9 µM (inactive) with SR; 17.9 µM (inactive) in the experiment with NCI-H522. Moreover, the GI50 in the experiment with ACHN is 17.2 µM (inactive); in the experiment with DU-145, 18 µM (inactive); in the experiment on SN12C it was 16.9 µM (inactive); with UO-31, 15.8 µM (inactive); with IGROV-1, 16.7 µM (inactive); with SW-620 it was 17.1 µM (inactive). In addition, the GI50 in the experiment on OVCAR-8 is 16 µM (inactive).
Regarding `NC(=O)NC1C(c2ccccc2)=C1c1ccccc1`, the GI50 with HOP-92 is 11.9 µM (inactive); with U-251, 13.9 µM (inactive); with BT-549 it was 12.6 µM (inactive); with HOP-62 it was 36.4 µM (inactive); in the experiment with MDA-N, 14.5 µM (inactive); in the experiment with HCT-15 it was 13.6 µM. Further, the GI50 with A498 was 15 µM (inactive); in the experiment with EKVX it was 26.8 µM (inactive); in the experiment with HT-29 it was 21.7 µM (inactive); in the experiment on LOX IMVI, 13.5 µM (inactive); with ACHN, 10.6 µM (inactive); in the experiment on DU-145, 41.3 µM (inactive). Besides, the GI50 is 13.6 µM (inactive) in the experiment on SN12C; 13.6 µM (inactive) in the experiment with UO-31; 12.7 µM (inactive) with IGROV-1; 13.7 µM (inactive) in the experiment with SW-620; 12.5 µM (inactive) in the experiment on OVCAR-8.
On to `O=C1CCC2SC1CCC2=O`, for which the GI50 in the experiment with HOP-92 is > 100 µM (inactive); with U-251, > 100 µM (inactive); with BT-549 it was > 100 µM (inactive); in the experiment with HOP-62, > 100 µM (inactive); in the experiment on HCT-15, more than 100 µM; with A498, > 100 µM (inactive). For the same compound, the GI50 with SNB-75, with EKVX, in the experiment on HT-29, in the experiment with LOX IMVI, with NCI-H522 and in the experiment on ACHN was > 100 µM (inactive) throughout. Besides, the GI50 in the experiment on DU-145, in the experiment with SN12C, in the experiment on UO-31, in the experiment on IGROV-1, in the experiment on SW-620 and in the experiment with OVCAR-8 was > 100 µM (inactive) in each case.
For `CCC(O)c1ccc(/N=C/c2ccccc2O)cc1` (stereo unspecified), the GI50 with HOP-92 was > 100 µM (inactive); with U-251, > 100 µM (inactive); in the experiment with BT-549 it was > 100 µM (inactive); in the experiment with HOP-62 it was > 100 µM (inactive); with HCT-15, more than 100 µM; in the experiment on A498 it was > 100 µM (inactive). Moreover, the GI50 was > 100 µM (inactive) in the experiment on SNB-75; > 100 µM (inactive) with EKVX; > 100 µM (inactive) in the experiment on HT-29; > 100 µM (inactive) with LOX IMVI; 90.2 µM (inactive) in the experiment on SR; > 100 µM (inactive) with NCI-H522. The GI50 in the experiment on ACHN, in the experiment on DU-145, with UO-31, with IGROV-1 and with SW-620 was > 100 µM (inactive) in each case.
For `Cc1ccc(S(=O)(=O)N/N=C2/C(=O)Nc3c(Cl)cc(Cl)cc32)cc1`, the GI50 in the experiment with HOP-92 was > 100 µM (inactive); in the experiment on U-251 it was 58.1 µM (inactive); in the experiment on BT-549, 86.7 µM (inactive); in the experiment on HOP-62, > 100 µM (inactive); in the experiment with MDA-N, 68.9 µM (inactive); in the experiment with HCT-15, 68.9 µM. The GI50 is 55.5 µM (inactive) with A498; 5.52 µM (inactive) with EKVX; 39.1 µM (inactive) with HT-29; 37.8 µM (inactive) in the experiment on LOX IMVI; 34.4 µM (inactive) in the experiment with SR; > 100 µM (inactive) in the experiment with ACHN. The GI50 with SN12C is > 100 µM (inactive); with UO-31, 41.6 µM (inactive); in the experiment on IGROV-1, 32.2 µM (inactive); in the experiment on SW-620, 99.1 µM (inactive); in the experiment on OVCAR-8 it was 38.8 µM (inactive).
For `Cc1nnc2n1N=C(c1cc(F)c(Cl)cc1Cl)/C(=C/c1ccc3c(c1)OCO3)S2`, the GI50 in the experiment with HOP-92 was 65.8 µM (inactive); in the experiment with U-251 it was 56.6 µM (inactive); with BT-549, > 100 µM (inactive); in the experiment with HOP-62, 37.1 µM (inactive); in the experiment with MDA-N, 39.3 µM (inactive); in the experiment on HCT-15 it was 52.5 µM. The GI50 in the experiment on A498 was 45.5 µM (inactive); in the experiment with EKVX, 23.1 µM (inactive); with HT-29, 36.1 µM (inactive); in the experiment on LOX IMVI, 33.1 µM (inactive); in the experiment on NCI-H522, 20.7 µM (inactive); in the experiment on ACHN, 63.5 µM (inactive). Moreover, the GI50 in the experiment with DU-145 is 72.8 µM (inactive); in the experiment on SN12C it was 53.7 µM (inactive); in the experiment on UO-31, > 100 µM (inactive); in the experiment with IGROV-1 it was 50.7 µM (inactive); in the experiment with SW-620, > 100 µM (inactive); with OVCAR-8, 65.3 µM (inactive).
